Source: patent US8546421B1, “Oncogenic-RAS-signal dependent lethal compounds” (The Trustees of Columbia University in the City of New York, priority 2007, dated 2013)
“And” between values parts separate entries of the source, which are not always exact repeats. Equal values may be shown once. Where a name gives a salt, the structure may show the parent alone.

Experiments:
[1] = system: BJeH, BJeHLT, BJeLR and DRD cells; test: Cell growth inhibition by stereoisomers of Compound 27; conditions: for cell growth inhibition (in words): BJeH, BJeHLT, BJeLR, DRD cells
[2] = system: PARP-1 cleavage in BJ-TERT/LT/ST/RAS^V12 cells; test: Western blot of PARP-1 cleavage upon compound treatment; assay type: cell-based, human; conditions: Western blot with anti-PARP-1 antibody
Experimental: 2×10^6 BJ-TERT/LT/ST/RAS^V12 cells were seeded in 10 cm dishes and treated with 1 μM staurosporine, 10 μg/mL erastin, 20 μg/mL Compound 3, and 1 μg/mL Compound 27 for 16 h. Both dying cells and live cells in each 10 cm dish were harvested and collected in the same 15 mL tubes by centrifuging cell suspension at 1,000 rpm for 5 min. Cell pellets were washed three times with PBS and cells were lysed in 200 μL of denaturing lysis buffer (50 mM HEPES KOH [pH 7.4], 40 mM NaCl, 2 mM EDTA, 1.5 mM Na3VO4, 50 mM NaF, 10 mM sodium pyrophosphate, 10 mM sodium β-glycerophosphate, 0.5% Triton X-100, and protease inhibitor tablet [Roche, cat.#11836170001]). Protein content was quantified using a Bio-Rad protein assay reagent (Bio-Rad, cat.#500-00006). Equal amounts of protein were resolved on SDS-polyacrylamide gels. The electrophoresed proteins were transblotted onto a PVDF membrane, blocked with 5% milk, and incubated with rabbit primary antibodies specific to: PARP (Santa Cruz, cat.#sc-7150), cleaved caspase-3 (Cell Signaling Technology, cat.#9661) overnight at 4° C. The membrane was then incubated in IRDye 800 goat anti-rabbit antibody (Li-cor Bioscience cat.#926-32211) at 1:3,000 dilutions for 45 min at room temperature. After washing off the unbound antibodies, membranes were scanned using the Odyssey™ Imaging System (Li-cor Bioscience).

[3] = system: Calu-1 cells expressing shRNAs targeting HRAS, NRAS or KRAS; test: Drug sensitivity after shRNA knockdown of RAS; assay type: cell-based, human; conditions: alamar blue
Experimental: On day one, 3×10^5 Calu-1 cells or 2×10^5 HT1080 cells were seeded in 10-cm dishes; on day 2, frozen virus stock was thawed at 37° C., hexadimethrine bromide (polybrene) (Sigma, cat.#H9268) was added to the virus solution at a final concentration of 8 μg/mL and growth media from cell culture was replaced with the virus/polybrene mixture. The culture was returned to the tissue culture incubator for 2 hours, with rocking of the dishes every 30 min in order to prevent drying. After 2 h, 10 mL growth medium was added, the culture was incubated for 2 days, and cells stably expressing shRNA were selected by adding puromycin (Sigma, cat.#P9620) at a final concentration of 1.5 μg/mL.
On the day of experiment, assay plates were prepared by seeding 3,000 HT1080, HT1080-pLKO, HT1080-TfR1 KD, Calu-1, Calu-1-pLKO, or Calu-1-509 cells per well in 36 μL of growth media to black, clear bottom 384-well plates. Also, assay plates were prepared by seeding 1,500 shRNA infected HT1080 or Calu-1 cells per well. Cells in assay plates were treated with each lethal compound in a 2-fold dilution series by transferring 4 μL solution from a 10× lethal plate of Erastin, Compound 3, Compound 27, or Compound 36. […] Percent growth inhibition (% GI) was calculated using fluorescence intensity values.

[4] = system: BJ cell system (BJ-TERT, BJ-TERT/LT/ST, BJ-TERT/LT/ST/RAS^V12, DRD cells); test: Alamar blue potency and selectivity in the engineered BJ cell system; conditions: for growth inhibitory activity and selectivity in the BJ cell system (in words): alamar blue, structural analogs and hits; for activity of analogs of Compound 27, percent growth inhibition (in words): cell viability assay, SAR of Compound 27
Experimental: Empty “step-daughter plates” were filled with 50 μL DMEM, except for columns 3 and 13, where 100 μL of hit compound solution were cherry-picked from daughter plates. After compound transfer, 2-fold dilution series across columns 3 through 12 and columns 13 through 22 was made by transferring 50 μL of compound solution to the next column successively (10-point dilution series), with extensive mixing. Hit-picking and 2-fold dilution series were carried out using Biomek FX Span-8 module (Beckman Coulter). Assay plates were prepared by seeding 1,000 BJ-TERT, BJ-TERT/LT/ST, and BJ-TERT/LT/ST/RAS^V12 cells per well in 36 μL growth medium. Cells in assay plates were treated with compounds from step-daughter plates by transferring 4 μL. The final concentration of the compound was 5.33 μg/mL to 0.01 μg/mL in this 10-point, 2-fold dilution series. Assay plates were returned to the culture incubator and maintained for 48 hours before adding alamar blue.
Fresh daughter plates were made from the mother plate and cherry-picked hits from the first round, 2-fold dilution series experiment as described above. Assay plates were prepared by seeding 1,000 BJ-TERT, BJ-TERT/LT/ST, BJ-TERT/LT/ST/RAS^V12 or BJ-TERT/p53DD/CDK4/cyclinD1/ST/RAS^V12 (DRD) cells per well in 32 μL growth media. Cells in the assay plates were treated with compounds from the step-daughter plate by transferring 8 μL solution. The final concentration of the compound was 10.66 μg/mL to 0.02 μg/mL in a 10-point, 2-fold dilution series manner. Assay plates were returned to the culture incubator and maintained for 48 hours before adding alamar blue.
Cells were seeded in 384-well assay plates, treated with candidate compounds, and incubated in the culture incubator in 40 μL culture volume per well. […] Plates were incubated further for 16 hours to allow reduction of alamar blue, which results in the generation of red fluorescence. The fluorescence intensity was determined using a Victor 3 plate reader (Perkin Elmer) with a 535 nm excitation filter and a 590 nm emission filter.
In the subsequent two-fold dilution series testing, selectivity was calculated as the ratio of GI50 values in BJ-TERT/LT/ST and BJ-TERT/LT/ST/RAS^V12 cells. […] DRD cells are also derived from BJ primary cells and the effects of mutations in both lines should be similar.

[5] = system: cellular iron in BJ-TERT/LT/ST/RAS^V12 cells; test: Cellular iron level by flow cytometry with Phen Green SK; assay type: cell-based, human; conditions: 24 hours treatment
Experimental: Cells were seeded in 6-well plates (200,000 cells per well) in BJ medium. The next day, the cell monolayer was washed with phosphate buffered saline (“PBS”) twice and stained with 5 μM of Phen Green SK, diacetate (Molecular Probe, cat.#P14313) in PBS by incubating the plate for 15 minutes in a culture incubator. Cells were released with trypsin/EDTA, harvested in 2 mL PBS, and centrifuged at 1,000 rpm for 5 min. The cell pellet was re-suspended in 1 mL of PBS, the cell suspension was transferred to disposable FACS tubes, and the fluorescence profile of the sample was monitored using a FACSCalibur system (BD Biosciences).

SK-ES-1 = test: Alamar Blue assay, additional cell lines; assay type: cell-based; conditions: anaplastic osteosarcoma
Source text: (§1) The results of this additional testing are summarized in Tables 7-10 (no additional cell lines were identified as sensitive for Compound 3). […] The tumor type, cell line, maximum percentage inhibition, the concentration of compound required to inhibit cell growth by 50%, and RAS mutation (if any) are also summarized.

TC32 = test: Alamar Blue assay, additional cell lines; assay type: cell-based
Source text: as §1

MES-CA = test: Alamar Blue assay, additional cell lines; assay type: cell-based; conditions: Uterine sarcoma
Source text: as §1

SK-LMS-1 = test: Alamar Blue assay, additional cell lines; assay type: cell-based; conditions: Leimyosarcoma, vulva
Source text: as §1

HeLa = test: Alamar Blue assay, additional cell lines; assay type: cell-based; conditions: Cervical carcinoma
Source text: as §1

U973 = test: Alamar Blue assay, additional cell lines; assay type: cell-based
Source text: as §1

U-2 OS = test: Alamar Blue assay, additional cell lines; assay type: cell-based; conditions: Osteosarcoma
Source text: as §1

SK-UT = test: Alamar Blue assay, additional cell lines; assay type: cell-based; conditions: Uterine, mixed mesodermal tumor
Source text: as §1

TC71 = test: Alamar Blue assay, additional cell lines; assay type: cell-based
Source text: as §1

RXF393 = test: NCI60 anti-cancer screening
UO-31 = test: NCI60 anti-cancer screening
HL-60(TB) [6] = test: cells; conditions: Homo sapiens
K-562 = test: NCI60 anti-cancer screening
CAKI-1 = test: NCI60 anti-cancer screening; conditions: Homo sapiens
786-0 = test: NCI60 anti-cancer screening
HL-60(TB) [7] = conditions: Leukemia
[8] = system: BJELR (Foreskin fibroblasts w/ TERT, LT, ST, RAS); test: Alamar Blue assay, additional cell lines; assay type: cell-based, human
Source text: as §1

Calu-1 = test: Alamar Blue assay, additional cell lines; assay type: cell-based, human; conditions: Calu-1, Non-small cell lung carcinoma, Alamar Blue
Source text: as §1

HT1080 = test: Alamar Blue assay, additional cell lines; assay type: cell-based, human
Source text: as §1

ACHN = test: NCI60 anti-cancer screening

SMILES: COC(=O)c1ccc([C@H]2c3[nH]c4ccccc4c3C[C@H](C(=O)OC)N2C(=O)CCl)cc1 [1S,3R Compound 27]
- cell growth inhibition (in words) [1]: strong cell growth inhibition in two cell lines
- EC50 ([1]; Homo sapiens): ~0.005 µg/mL and ~10 nM
- selective lethality (in words) ([1]; mutant HRAS BJ tumor cell lines versus isogenic cell lines lacking oncogenic HRAS): selective lethality towards BJ tumor cell lines containing mutant HRAS

SMILES: CN[C@@H]1C[C@H]2O[C@@](C)([C@@H]1OC)n1c3ccccc3c3c4c(c5c6ccccc6n2c5c31)C(=O)NC4 [staurosporine, reference compound]
- PARP-1 cleavage / type of cell death [2]: showed PARP-1 cleavage
- sensitivity of Calu-1 cells after RAS shRNA compared with parental cells [3]: loss of sensitivity to staurosporine was not observed

SMILES: COC(=O)C1=C(C)NC2=C(C(=O)CC(c3ccc(Cl)cc3)C2)C1c1ccccc1F (stereo not shown) [Compound 5]
- growth inhibitory activity and selectivity in the BJ cell system (in words) [4]: varied potency and selectivity

SMILES: O=C(NN=Cc1c(O)ccc2ccccc12)c1ccncc1 [Compound 311]
- change of cellular iron level (PGSK fluorescence) [5]: induced a peak shift in the fluorescence profile

SMILES: COC(=O)C1Cc2c([nH]c3ccccc23)C(c2ccc(NC(=O)CCCCCNC(=O)CCCCC3SCC4NC(=O)NC43)cc2)N1C(=O)CCl (stereo not shown) [biotinylated analog of Compound 27]
- activity of analogs of Compound 27, percent growth inhibition (in words) [4]: not sufficiently active

SMILES: C=CC(=O)N1C(C(=O)OC)Cc2c([nH]c3ccccc23)C1c1ccc(C(=O)OC)cc1 (stereo not shown) [acryl analog]
- activity of analogs of Compound 27, percent growth inhibition (in words) [4]: insufficiently active

SMILES: COC(=O)c1ccc([C@@H]2c3[nH]c4ccccc4c3C[C@@H](C(=O)OC)N2C(=O)CCl)cc1 [(1R,3S) Compound 27]
- cell growth inhibition (in words) [1]: no appreciable growth inhibition

SMILES: CC(=O)N(O)CCCCCNC(=O)CCC(=O)N(O)CCCCCNC(=O)CCC(=O)N(O)CCCCCN [DFOM, deferoxamine mesylate]
- change of cellular iron level (PGSK fluorescence) [5]: induced a peak shift in the fluorescence profile

SMILES: CCOc1ccccc1-n1c(C(C)N2CCN(C(=O)COc3ccc(Cl)cc3)CC2)nc2ccccc2c1=O (stereo not shown) [Erastin, reference compound]
- Maximum Inhibition % (SK-ES-1; Ewing sarcoma): 98%
- GI50 (SK-ES-1; Homo sapiens, SK-ES1, Ewing sarcoma): 7 µM
- GI50 (TC32; Homo sapiens, TC-32, Peripheral neuroepithelioma): 8 µM
- Maximum Inhibition % (TC32; Peripheral neuroepithelioma): 88%
- GI50 (MES-CA): 3 µM
- Maximum Inhibition % (MES-CA): 100%
- GI50 (SK-LMS-1; Homo sapiens): 6 µM
- Maximum Inhibition % (SK-LMS-1): 100%
- Maximum Inhibition % (HeLa): 94%
- GI50 (HeLa; Homo sapiens): 0.6 µM
- Maximum Inhibition % (U973; Acute myelogenous leukemia): 73%
- GI50 (U973; U-973, Acute myelogenous leukemia): 10 µM
- GI50 (U-2 OS; Homo sapiens, U2OS): 6 µM
- Maximum Inhibition % (U-2 OS): 96%
- GI50 (SK-UT): 4 µM
- Maximum Inhibition % (SK-UT): 73%
- Maximum Inhibition % (TC71; Ewing sarcoma): 92%
- GI50 (TC71; TC-71, Ewing sarcoma): 10 µM
- GI50 (RXF393; Homo sapiens, RXF 393): 2.16 µM
- CC50 (RXF393; Homo sapiens, RXF 393, read-out: LC 50%): > 10 µM
- GI 100% (RXF393; RXF393, Renal Cancer): 7.2 µM
- GI50 (UO-31; Homo sapiens, UO-31): 0.373 µM
- CC50 (UO-31; Homo sapiens, UO-31, read-out: LC 50%): > 10 µM
- GI 100% (UO-31; UO-31, Renal Cancer): 1.63 µM
- GI50 (HL-60(TB) [6]; HL-60): 2.26 µM
- CC50 (HL-60(TB) [6]; HL-60, read-out: LC 50%): > 10 µM
- GI50 (K-562; Homo sapiens, K562): 3.39 µM
- CC50 (K-562; Homo sapiens, K562, read-out: LC 50%): > 10 µM
- GI 100% (K-562; K-562, Leukemia): >10 µM
- GI50 (CAKI-1; CAKI-1): 2.15 µM
- CC50 (CAKI-1; CAKI-1, read-out: LC 50%): > 10 µM
- GI 100% (786-0; 786-0, Renal Cancer): 4.12 µM
- GI50 (786-0; Homo sapiens, 786-0): 2.03 µM
- CC50 (786-0; Homo sapiens, 786-0, read-out: LC 50%): 8.36 µM
- GI 100% (HL-60(TB) [7]): >10 µM
- Maximum Inhibition % [8]: 100%
- GI50 ([8]; Homo sapiens): 6 µM
- Maximum Inhibition % (Calu-1): 100%
- GI50 (Calu-1; Homo sapiens): 6 µM
- Maximum Inhibition % (HT1080; Fibrosarcoma): 98%
- GI50 (HT1080; Homo sapiens, HT-1080, Fibrosarcoma): 2 µM
- GI50 (ACHN; Homo sapiens): 0.979 µM
- CC50 (ACHN; Homo sapiens, read-out: LC 50%): 6.3 µM
- GI 100% (ACHN; Renal Cancer): 2.5 µM

SMILES: COC(=O)C1Cc2c([nH]c3ccccc23)C(C)(C)N1C(=O)CCl (stereo not shown) [Compound 28]
- growth inhibitory activity and selectivity in the BJ cell system (in words) [4]: virtually the same activity and selectivity

SMILES: COC(=O)c1ccc([C@H]2c3[nH]c4ccccc4c3C[C@@H](C(=O)OC)N2C(=O)CCl)cc1 [(1S,3S) Compound 27]
- cell growth inhibition (in words) [1]: no appreciable growth inhibition

SMILES: COC(=O)c1ccc([C@@H]2c3[nH]c4ccccc4c3C[C@H](C(=O)OC)N2C(=O)CCl)cc1 [1R,3R Compound 27]
- cell growth inhibition (in words) [1]: no appreciable growth inhibition
